Data as given in PubChem BioAssay (NCI).
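GI50: concentration for 50% inhibition of growth. At the TGI there is no net growth.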

Tests used:
Assay in all cases: growth of human tumour cells (NCI), 384-well format
OVCAR-4 ovarian = tested on: OVCAR-4 ovarian
COLO 205 colon = tested on: COLO 205 colon
U251 glioblastoma = tested on: U251 glioblastoma
IGROV1 ovarian = tested on: IGROV1 ovarian
SNB-19 CNS = tested on: SNB-19 CNS
BT-549 breast = tested on: BT-549 breast
NCI/ADR-RES ovarian = tested on: NCI/ADR-RES ovarian
RPMI-8226 leukemia = tested on: RPMI-8226 leukemia
CCRF-CEM leukemia = tested on: CCRF-CEM leukemia
NCI-H460 NSCLC = tested on: NCI-H460 NSCLC
SN12C renal = tested on: SN12C renal
SK-OV-3 ovarian = tested on: SK-OV-3 ovarian
RXF 393 renal = tested on: RXF 393 renal
HOP-62 NSCLC = tested on: HOP-62 NSCLC
CAKI-1 renal = tested on: CAKI-1 renal
ACHN renal = tested on: ACHN renal
OVCAR-8 ovarian = tested on: OVCAR-8 ovarian
SW-620 colon = tested on: SW-620 colon
UACC-257 melanoma = tested on: UACC-257 melanoma
HT29 colon = tested on: HT29 colon
MDA-MB-231 breast = tested on: MDA-MB-231 breast
NCI-H226 lung = tested on: NCI-H226 lung
LOX IMVI melanoma = tested on: LOX IMVI melanoma
NCI-H322M lung = tested on: NCI-H322M lung
NCI-H522 lung = tested on: NCI-H522 lung
MCF7 breast = tested on: MCF7 breast
OVCAR-3 ovarian = tested on: OVCAR-3 ovarian
786-0 renal = tested on: 786-0 renal
SNB-75 CNS = tested on: SNB-75 CNS
UACC-62 melanoma = tested on: UACC-62 melanoma
SK-MEL-5 melanoma = tested on: SK-MEL-5 melanoma
K-562 leukemia = tested on: K-562 leukemia
PC-3 prostate = tested on: PC-3 prostate
SR leukemia = tested on: SR leukemia
SK-MEL-28 melanoma = tested on: SK-MEL-28 melanoma
KM12 colon = tested on: KM12 colon
UO-31 renal = tested on: UO-31 renal
TK-10 renal = tested on: TK-10 renal
HOP-92 NSCLC = tested on: HOP-92 NSCLC
HCC-2998 colon = tested on: HCC-2998 colon
MOLT-4 leukemia = tested on: MOLT-4 leukemia
SF-539 CNS = tested on: SF-539 CNS
MDA-MB-468 breast = tested on: MDA-MB-468 breast
M14 melanoma = tested on: M14 melanoma
DU-145 prostate = tested on: DU-145 prostate
MALME-3M melanoma = tested on: MALME-3M melanoma
EKVX NSCLC = tested on: EKVX NSCLC
A549 NSCLC = tested on: A549 NSCLC
HS 578T breast = tested on: HS 578T breast
SF-268 CNS = tested on: SF-268 CNS
SF-295 CNS = tested on: SF-295 CNS
OVCAR-5 ovarian = tested on: OVCAR-5 ovarian
HL-60(TB) leukemia = tested on: HL-60(TB) leukemia
HCT-15 colon = tested on: HCT-15 colon
T-47D breast = tested on: T-47D breast
NCI-H23 lung = tested on: NCI-H23 lung
A498 renal = tested on: A498 renal
MDA-MB-435 melanoma = tested on: MDA-MB-435 melanoma

CN(C)c1cc2c(cc1Sc1nc3c(N)nccc3n1CCNCC(C)(C)C)OCO2
GI50 (OVCAR-4 ovarian): 324 nM
TGI (OVCAR-4 ovarian): 883 nM
GI50 (COLO 205 colon): 66.4 nM
TGI (COLO 205 colon): 325 nM
GI50 (U251 glioblastoma): 352 nM
TGI (U251 glioblastoma): 1420 nM
GI50 (IGROV1 ovarian): 270 nM
TGI (IGROV1 ovarian): 742 nM
GI50 (SNB-19 CNS): 423 nM
TGI (SNB-19 CNS): 6840 nM
GI50 (BT-549 breast): 118 nM
TGI (BT-549 breast): 664 nM
GI50 (NCI/ADR-RES ovarian): 280 nM
TGI (NCI/ADR-RES ovarian): 625 nM
GI50 (RPMI-8226 leukemia): 135 nM
TGI (RPMI-8226 leukemia): 291 nM
GI50 (CCRF-CEM leukemia): 118 nM
TGI (CCRF-CEM leukemia): 312 nM
GI50 (NCI-H460 NSCLC): 138 nM
TGI (NCI-H460 NSCLC): 297 nM
GI50 (SN12C renal): 221 nM
TGI (SN12C renal): 506 nM
GI50 (SK-OV-3 ovarian): 231 nM
TGI (SK-OV-3 ovarian): 10800 nM
GI50 (RXF 393 renal): 127 nM
TGI (RXF 393 renal): 348 nM
GI50 (HOP-62 NSCLC): 292 nM
TGI (HOP-62 NSCLC): 934 nM
GI50 (CAKI-1 renal): 449 nM
TGI (CAKI-1 renal): 15800 nM
GI50 (ACHN renal): 376 nM
TGI (ACHN renal): 13200 nM
GI50 (OVCAR-8 ovarian): 174 nM
TGI (OVCAR-8 ovarian): 349 nM
GI50 (SW-620 colon): 215 nM
TGI (SW-620 colon): 715 nM
GI50 (UACC-257 melanoma): 507 nM
TGI (UACC-257 melanoma): 4140 nM
GI50 (HT29 colon): 188 nM
TGI (HT29 colon): 2260 nM
GI50 (MDA-MB-231 breast): 231 nM
TGI (MDA-MB-231 breast): 608 nM
GI50 (NCI-H226 lung): 387 nM
TGI (NCI-H226 lung): 13200 nM
GI50 (LOX IMVI melanoma): 177 nM
TGI (LOX IMVI melanoma): 330 nM
GI50 (NCI-H322M lung): 299 nM
TGI (NCI-H322M lung): 14800 nM
GI50 (NCI-H522 lung): 191 nM
TGI (NCI-H522 lung): 377 nM
GI50 (MCF7 breast): 89.5 nM
TGI (MCF7 breast): 1680 nM
GI50 (OVCAR-3 ovarian): 234 nM
TGI (OVCAR-3 ovarian): 631 nM
GI50 ([…]-0 renal): 280 nM
TGI (786-0 renal): 963 nM
GI50 (SNB-75 CNS): 273 nM
TGI (SNB-75 CNS): 553 nM
GI50 (UACC-62 melanoma): 226 nM
TGI (UACC-62 melanoma): 590 nM
GI50 (SK-MEL-5 melanoma): 79.8 nM
TGI (SK-MEL-5 melanoma): 1450 nM
GI50 (K-562 leukemia): 199 nM
TGI (K-562 leukemia): 737 nM
GI50 (PC-3 prostate): 229 nM
TGI (PC-3 prostate): 517 nM
GI50 (SR leukemia): 62.8 nM
TGI (SR leukemia): 197 nM
GI50 (SK-MEL-28 melanoma): 327 nM
TGI (SK-MEL-28 melanoma): 11900 nM
GI50 (KM12 colon): 171 nM
TGI (KM12 colon): 6350 nM
GI50 (UO-31 renal): 683 nM
TGI (UO-31 renal): 19500 nM
GI50 (TK-10 renal): 400 nM
TGI (TK-10 renal): 5550 nM
GI50 (HOP-92 NSCLC): 183 nM
TGI (HOP-92 NSCLC): 503 nM
GI50 (HCC-2998 colon): 183 nM
TGI (HCC-2998 colon): 419 nM
GI50 (MOLT-4 leukemia): 58.9 nM
TGI (MOLT-4 leukemia): 192 nM
GI50 (SF-539 CNS): 236 nM
TGI (SF-539 CNS): 541 nM
GI50 (MDA-MB-468 breast): 307 nM
TGI (MDA-MB-468 breast): 507 nM
GI50 (M14 melanoma): 303 nM
TGI (M14 melanoma): 3440 nM
GI50 (DU-145 prostate): 228 nM
TGI (DU-145 prostate): 1130 nM
GI50 (MALME-3M melanoma): 241 nM
TGI (MALME-3M melanoma): 548 nM
GI50 (EKVX NSCLC): 344 nM
TGI (EKVX NSCLC): 11800 nM
GI50 (A549 NSCLC): 131 nM
TGI (A549 NSCLC): 12100 nM
GI50 (HS 578T breast): 261 nM
TGI (HS 578T breast): 769 nM
GI50 (SF-268 CNS): 221 nM
TGI (SF-268 CNS): 11100 nM
GI50 (SF-295 CNS): 218 nM
TGI (SF-295 CNS): 499 nM
GI50 (OVCAR-5 ovarian): 390 nM
TGI (OVCAR-5 ovarian): 9750 nM
GI50 (HL-60(TB) leukemia): 111 nM
TGI (HL-60(TB) leukemia): 241 nM
GI50 (HCT-15 colon): 144 nM
TGI (HCT-15 colon): 8640 nM
GI50 (T-47D breast): 350 nM
TGI (T-47D breast): 10500 nM
GI50 (NCI-H23 lung): 134 nM
TGI (NCI-H23 lung): 467 nM
GI50 (A498 renal): 82.9 nM
TGI (A498 renal): 11900 nM
GI50 (MDA-MB-435 melanoma): 447 nM
TGI (MDA-MB-435 melanoma): 15300 nM
